Data: patent publication US12324794B2, “Method to alleviate the symptoms of PMS” (priority 2016, dated 2025)

Key:
women with PMS / PMDD = test: Case studies of women with PMS or PMDD symptoms (Examples 2-6); type: in vivo, human
Description: Below are some case studies and a human trial, both of which show significant improvement in symptoms. While acne can be measured by inspection, the other symptoms rely upon the internal feelings of the patient. To measure symptoms that deal with tender breasts, fatigue, difficulty concentrating, diminished impulse control, irritability, anxiety, tension, anger, depression, suicidal thoughts, feeling “out of control”, insomnia, cramping and rapid fluctuations in mood, one skilled in the art must rely on the interpretation of patient. This can be done through an interview with an expert, such as a medical doctor, or through validated survey forms that specifically address these symptoms. Examples of these forms that have been validated by independent clinical trial include: • Buss Perry Aggression Questionnaire (Anger) • Clinical Anger Scale (Anger) • Cohen-Perceived-Stress Scale (Anxiety) • Generalized-Anxiety-Scale (Anxiety) • Generalized Anxiety Disorder 7-item (GAD-7) scale (Anxiety) • Beck's Depression Inventory (Depression) • Center for Epidemiologic Studies Depression Scale (Depression) • Hospital Anxiety and Depression Scale (Anxiety and Depression) • Premenstrual Assessment Form (anger, depression, fatigue and anxiety) • Mood Calendar Tracking (anger, depression, fatigue and anxiety) A person experienced severe anger and depression one day a month, right before their period, every month. […] The cramping was not relieved by Midol or Aspirin. The person was despondent even after their symptoms of PMDD left because of guilt over their behavior during this time period. […] They reported that it was like a 1,000 pound weight being taken off their shoulders. The person in Example 3 continued to take oxaloacetate each month for the next three months and monitored their progress. They took one pill starting about 10 days before their period, and continued taking 1 pill daily until the first sign of PMS, when they increased the dosage to 2 capsules per day until the 2nd day of their period. […] They reported that “I am no longer a suicidal, psychotic crazy person every month. And I know it is the supplements because this will be the 3rd month with no PMDD and that is NOT a coincidence.” A person presented with severe PMDD ever since they were […]. They are now 26. Typically, the patient had to take-off from work 3 days out of each month, and self-seclude, because they could not be with people. […] The improvements with anhydrous enol-oxaloacetate have continued for over 2 years with this patient. A person presented with severe anxiety attacks and fatigue during the week before menstruation.

women with PMS [1] = test: Suicidal Ideation item of Beck's Depression Inventory, Clinical Trials 1 and 2 compiled (Example 9); type: in vivo, human; conditions: 31 women with baseline score above 0, both trials compiled
Description: In the clinical trials within Examples 7 and 8, the Beck's Depression Inventory was used. One portion of the Beck's Depression Inventory specifically deals with “Suicidal Ideation” (thoughts about committing suicide). The survey scores the relative severity of suicidal ideation via numerical scoring as follows: • Score Value • 0 I don't have any thoughts of killing myself. • 1 I have thoughts of killing myself, but I would not carry them out. • 2 I would like to kill myself. • 3 I would kill myself if I had the chance. The results of Clinical Trial 1 and 2 were compiled to examine the Suicidal Ideation of the women who participated in this clinical trial. Out of the 45 women in both trials, 31 women experienced a score above 0 in the baseline survey. No women in the completed study who scored 0 in the baseline study increased their suicidal ideation score. In order to examine suicidal ideation statistically, women with a 0 score on their baseline survey were removed from the analysis. P values were calculated using a student's T test, using a two-tailed distribution with paring of the data to the individual.

[2] = in vivo
Description: The dose ratio between toxic and therapeutic effects is the therapeutic index and it can be expressed as the ratio LD50/ED50.

women with PMS [3] = test: Randomized, double-blinded, placebo controlled cross-over trial for PMS emotional symptoms (Example 7); type: in vivo, human; conditions: 200 mg oxaloacetate per day, approx. 28 days, 26 women
Protocol: A randomized, double blinded placebo-controlled crossover trial was conducted using 200 mg oxaloacetate per day as the active ingredient, and rice flour as the placebo ingredient. An Institutional Review Board (IRB) has approved the clinical plan, and patients have signed the human consent forms. Patients were located from across the United States. Consent forms and survey questionnaires were filled out on-line. The patients and the lead investigator were unaware of which product, Active or Placebo, the patients were receiving. Inclusion Criteria for the trial: • Able to give informed consent and follow instructions per the protocol • Female with history of mood swings, anxiety or depressed mood associated with PMS • Ages 21 to 50 at the start of the study • Not pregnant Exclusion Criteria for the trial: • A formal diagnosis of Major Depression • Previously taken Oxaloacetate as a supplement • Participation in other drug studies or use of other investigational products within 30 days prior to baseline • If unwilling to discontinue use of other nutritional supplements taken for the purpose of PMS modulation during the study • Any unstable or clinically significant condition that would impair the subject's ability to comply with study follow up. • […] of Premenstrual Dysphoric Disorder (PMDD) (a severe form of PMS). After signing the human consent forms, the patient took four different surveys to assess their current emotional state during PMS. • The Beck Depression Inventory modified to examine the week prior to the person's period (21 questions) • The Cohen Perceived Stress form, modified to examine the week prior to the person's period (10 questions). • The Generalized Anxiety Disorder 7-Item Scale modified to examine the week prior to the person's period (7 questions). • The Buss Perry Aggression questionnaire modified to examine the week prior to the person's period (29 questions). The time to fill out the composite 4-survey questionnaire is less than 30 minutes. The questionnaires are filled out on-line and made available to investigator team. […] After a “baseline” 4-survey questionnaire was completed by the women, they would be randomly sent either the Active oxaloacetate compound (200 mg oxaloacetate) or the Placebo (200 mg rice flour). The women would take a daily dose of the compound received, starting with their menstrual period, and continuing daily until the following menstrual period. At that following menstrual period, the women would again complete the 4-survey questionnaire. […] This is a “cross-over” type design. The women take the new product staring on a menstrual period, and continue taking it daily until a following menstrual period. The then again complete the 4-survey questionnaire. In this trial, each woman completed a baseline survey, and a survey after approximately 28 days for oxaloacetate, and a survey after approximately 28 days for rice flour. 26 women completed the study. Half of the women took oxaloacetate first, and the other half took a placebo first. […] P values were calculated using a student's T test, using a two-tailed distribution with paring of the data to the individual.

women with PMS [4] = test: Single-blinded, placebo controlled cross-over trial for PMS emotional symptoms (Example 8); type: in vivo, human; set-up: concentration or dose not given beside the values; conditions: placebo first, oxaloacetate second, 19 women
Description: The clinical trial of Example 7 was repeated with 19 women, except that the trial was single blinded. The placebo was sent to all women first, and the oxaloacetate active second. […] This should not have come as a complete surprise to us, as oxaloacetate exerts a beneficial effect on gene expression (movement towards the calorie restriction metabolic state) that can have positive effects for several weeks after discontinuation of the product. To better measure the oxaloacetate effect, therefore, oxaloacetate was given second in this trial. P values were calculated using a student's T test, using a two-tailed distribution with paring of the data to the individual.

[5] = Stability / decarboxylation; type: physicochemical
Description: The enol and keto form of oxaloacetic acid are tautomers, and in water form a chemical equilibrium. […] The keto-oxaloacetate decarboxylates quickly to pyruvate. As the keto-oxaloacetate form disappears due to decarboxylation, the enol and hydrated form convert to keto-oxaloacetate, and then also decarboxylate into carbon dioxide and pyruvate, until all the oxaloacetate is consumed. Note that neither of the byproducts of oxaloacetate decarboxylation, carbon dioxide and pyruvate, are effective in treating the symptoms of PMS and PMDD. If there are divalent cations in the fluid, which is very common, the decarboxylation of oxaloacetic acid can happen within a day. […] (See Cash, U.S. Pat. No. 9,050,306). […] Water catalyzes the equilibrium reaction between enol- and keto oxaloacetic acid. Note that only the keto form of oxaloacetic acid decarboxylates into pyruvate and carbon dioxide spontaneously, not the enol-form. There is an energy gap between the enol and keto form which is bridged when the compounds are exposed to water, however, this same energy gap prevents the conversion of the enol to keto form when the product is kept dry. Once there is a conversion to the keto form, decarboxylation can spontaneously occur at temperatures above the freezing point of water. […] Drying effectiveness can be increased by increasing the drying time, drying under vacuum, by using anhydrous washes of isopropyl alcohol or ethyl alcohol to absorb the remaining water (and then evaporating the alcohol), or by performing multiple washes with hexane or non-water soluble solvent to physically remove the water, typically after an alcohol wash. The non-water soluble solvent would then be evaporated off. […] Hexane is a residual solvent in many commercial food preparations including decaffeinated coffee, and is not toxic in small quantities. Alternatively, the final wash can be performed with liquefied propane, liquefied butane, ethyl acetate, ethane, carbon dioxide, or nitrous oxide to reduce the water content.

[6] = Forms of oxaloacetic acid in water; type: physicochemical; conditions: pH 6.9
Protocol: In some embodiments, the present invention provides methods for treating symptoms of PMS and methods for treating symptoms of PMS and PMDD comprising administration of compositions comprising oxaloacetate. Oxaloacetic acid, when dissolved in water, ionizes to oxaloacetate. The oxaloacetate can be in three forms depending on the pH of the solution. At low pH (<1.5) and low temperature (<4° C.) oxaloacetate hydrates. […] Outside of water solutions, the solid form of oxaloacetic acid is primarily in the enol form. All forms of oxaloacetic acid and the ion oxaloacetate are absorbed by the body. The hydrated form is mostly converted once it enters the higher pH of the body outside of the intestinal tract to the keto and enol form. […] Enol-oxaloacetate is converted to keto-oxaloacetate with the enzyme enol-keto tautomerase, a ubiquitous enzyme throughout the human body. The enol and keto form of oxaloacetic acid are tautomers, and in water form a chemical equilibrium. […] The keto-oxaloacetate decarboxylates quickly to pyruvate. As the keto-oxaloacetate form disappears due to decarboxylation, the enol and hydrated form convert to keto-oxaloacetate, and then also decarboxylate into carbon dioxide and pyruvate, until all the oxaloacetate is consumed. Note that neither of the byproducts of oxaloacetate decarboxylation, carbon dioxide and pyruvate, are effective in treating the symptoms of PMS and PMDD. If there are divalent cations in the fluid, which is very common, the decarboxylation of oxaloacetic acid can happen within a day.

CC(=O)Oc1ccccc1C(=O)O [Aspirin, reference compound]
relief of extreme cramping (pain level 10) (women with PMS / PMDD; person with PMDD, history (Example 3)): not relieved

O=C(O)CC(=O)C(=O)O [Oxaloacetate]
Suicidal Ideation, reduction from Baseline (women with PMS [1]): 47.90%
LD50 [2]: above 5 g/kg of body weight
Beck's Depression Inventory, reduction from Placebo (women with PMS [3]): 25.57%
Beck's Depression Inventory, reduction from baseline (women with PMS [3]): 50.88%
Buss-Perry Aggression Scale, reduction from Placebo (women with PMS [3]): 9.22%
Buss-Perry Aggression Scale, reduction from baseline (women with PMS [3]): 15.10%
Cohen Perceived Stress, reduction from Placebo (women with PMS [3]): 16.51%
Cohen Perceived Stress, reduction from baseline (women with PMS [3]): 34.35%
Generalized Anxiety Disorder, reduction from Placebo (women with PMS [3]): 28.08%
Generalized Anxiety Disorder, reduction from baseline (women with PMS [3]): 49.73%
Beck's Depression Inventory, reduction from Placebo (women with PMS [4]): 37.12%
Beck's Depression Inventory, reduction from baseline (women with PMS [4]): 54.42%
Buss-Perry Aggression Scale, reduction from Placebo (women with PMS [4]): 14.06%
Buss-Perry Aggression Scale, reduction from baseline (women with PMS [4]): 17.81%
Cohen Perceived Stress, reduction from Placebo (women with PMS [4]): 24.40%
Cohen Perceived Stress, reduction from baseline (women with PMS [4]): 36.67%
Generalized Anxiety Disorder, reduction from Placebo (women with PMS [4]): 38.02%
Generalized Anxiety Disorder, reduction from baseline (women with PMS [4]): 54.23%

O=C(O)CC(=O)C(=O)O [anhydrous enol-oxaloacetate, anhydrous enol-oxaloacetic acid]
fatigue during the week before menstruation (women with PMS / PMDD; person, two 100 mg lozenges under the tongue (Example 6)): greatly reduced
time until panic attack subsided (women with PMS / PMDD; person, two 100 mg lozenges under the tongue for 5 minutes (Example 6)): less than 5 minutes
severe premenstrual anger and depression (women with PMS / PMDD; person, two capsules of 100 mg on that day (Example 2)): reduced in intensity to the point where they could manage the symptoms easily
stability at room temperature ([5]; room temperature, kept dry): exceeding one year

O=C(O)CC(=O)C(=O)O [oxaloacetic acid]
share in the enol form [6]: 11%
share in the hydrated form [6]: 5%
share in the keto form [6]: 84%
time to decarboxylation in fluid ([5]; divalent cations in the fluid): within a day
stability of the hydrated form ([5]; very low pH, temperatures not exceeding 8° C.): less than one week
